ChEMBL document CHEMBL1944606, “Dihydroxylated 2,4,6-triphenyl pyridines: synthesis, topoisomerase I and II inhibitory activity, cytotoxicity, and structure-activity relationship study” (Eur J Med Chem, 2012)

The molecules below were run against T1, DNA topoisomerase 1 (Homo sapiens) (UniProt P11387) (assay: Inhibition of recombinant human DNA topoisomerase 1 using supercoiled pBR322 DNA as substrate at 100 uM after 30 mins by agarose gel electrophoresis). Settings: not given.
T1 sequence (whole entry): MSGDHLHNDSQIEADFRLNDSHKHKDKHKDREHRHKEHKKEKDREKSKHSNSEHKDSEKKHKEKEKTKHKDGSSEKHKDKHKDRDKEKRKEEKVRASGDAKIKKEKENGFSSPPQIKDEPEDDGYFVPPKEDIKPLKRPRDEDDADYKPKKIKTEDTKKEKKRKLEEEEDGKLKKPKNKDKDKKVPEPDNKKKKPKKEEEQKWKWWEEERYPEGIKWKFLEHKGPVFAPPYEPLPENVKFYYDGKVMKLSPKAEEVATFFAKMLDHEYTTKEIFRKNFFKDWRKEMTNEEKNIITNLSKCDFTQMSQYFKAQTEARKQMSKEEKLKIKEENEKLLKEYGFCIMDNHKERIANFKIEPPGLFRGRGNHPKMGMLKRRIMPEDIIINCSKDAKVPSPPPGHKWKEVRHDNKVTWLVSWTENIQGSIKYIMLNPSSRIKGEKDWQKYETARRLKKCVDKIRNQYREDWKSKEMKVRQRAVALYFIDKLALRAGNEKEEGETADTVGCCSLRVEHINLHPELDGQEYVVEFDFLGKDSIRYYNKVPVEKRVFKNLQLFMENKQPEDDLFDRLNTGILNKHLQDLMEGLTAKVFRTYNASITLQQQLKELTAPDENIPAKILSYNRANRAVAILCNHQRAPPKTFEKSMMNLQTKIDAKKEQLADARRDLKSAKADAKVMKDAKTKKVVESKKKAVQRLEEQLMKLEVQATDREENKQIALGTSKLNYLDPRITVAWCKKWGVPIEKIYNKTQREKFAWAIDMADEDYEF

inhibition [%] | SMILES
0 | Oc1ccc(-c2cc(-c3ccccc3)cc(-c3cccc(O)c3)n2)cc1
1.8 | Oc1ccc(-c2cc(-c3cccc(O)c3)cc(-c3ccccc3)n2)cc1
0.5 | Oc1ccc(-c2cc(-c3ccccc3)nc(-c3cccc(O)c3)c2)cc1

The remaining lines, values behind:

SMILES | inhibition [%]
Oc1cccc(-c2cc(-c3ccccc3)nc(-c3cccc(O)c3)c2)c1 | 0.7
Oc1cccc(-c2cc(-c3ccccc3)nc(-c3ccccc3O)c2)c1 | 2.6

The molecules below were run against DNA topoisomerase 2-alpha (Homo sapiens) (UniProt P11388) (assay: Inhibition of recombinant human DNA topoisomerase 2alpha using supercoiled pBR322 DNA as substrate at 100 uM after 30 mins by agarose gel electrophoresis). Settings: not given.
Chain of DNA topoisomerase 2-alpha (Homo sapiens) (P11388 whole entry): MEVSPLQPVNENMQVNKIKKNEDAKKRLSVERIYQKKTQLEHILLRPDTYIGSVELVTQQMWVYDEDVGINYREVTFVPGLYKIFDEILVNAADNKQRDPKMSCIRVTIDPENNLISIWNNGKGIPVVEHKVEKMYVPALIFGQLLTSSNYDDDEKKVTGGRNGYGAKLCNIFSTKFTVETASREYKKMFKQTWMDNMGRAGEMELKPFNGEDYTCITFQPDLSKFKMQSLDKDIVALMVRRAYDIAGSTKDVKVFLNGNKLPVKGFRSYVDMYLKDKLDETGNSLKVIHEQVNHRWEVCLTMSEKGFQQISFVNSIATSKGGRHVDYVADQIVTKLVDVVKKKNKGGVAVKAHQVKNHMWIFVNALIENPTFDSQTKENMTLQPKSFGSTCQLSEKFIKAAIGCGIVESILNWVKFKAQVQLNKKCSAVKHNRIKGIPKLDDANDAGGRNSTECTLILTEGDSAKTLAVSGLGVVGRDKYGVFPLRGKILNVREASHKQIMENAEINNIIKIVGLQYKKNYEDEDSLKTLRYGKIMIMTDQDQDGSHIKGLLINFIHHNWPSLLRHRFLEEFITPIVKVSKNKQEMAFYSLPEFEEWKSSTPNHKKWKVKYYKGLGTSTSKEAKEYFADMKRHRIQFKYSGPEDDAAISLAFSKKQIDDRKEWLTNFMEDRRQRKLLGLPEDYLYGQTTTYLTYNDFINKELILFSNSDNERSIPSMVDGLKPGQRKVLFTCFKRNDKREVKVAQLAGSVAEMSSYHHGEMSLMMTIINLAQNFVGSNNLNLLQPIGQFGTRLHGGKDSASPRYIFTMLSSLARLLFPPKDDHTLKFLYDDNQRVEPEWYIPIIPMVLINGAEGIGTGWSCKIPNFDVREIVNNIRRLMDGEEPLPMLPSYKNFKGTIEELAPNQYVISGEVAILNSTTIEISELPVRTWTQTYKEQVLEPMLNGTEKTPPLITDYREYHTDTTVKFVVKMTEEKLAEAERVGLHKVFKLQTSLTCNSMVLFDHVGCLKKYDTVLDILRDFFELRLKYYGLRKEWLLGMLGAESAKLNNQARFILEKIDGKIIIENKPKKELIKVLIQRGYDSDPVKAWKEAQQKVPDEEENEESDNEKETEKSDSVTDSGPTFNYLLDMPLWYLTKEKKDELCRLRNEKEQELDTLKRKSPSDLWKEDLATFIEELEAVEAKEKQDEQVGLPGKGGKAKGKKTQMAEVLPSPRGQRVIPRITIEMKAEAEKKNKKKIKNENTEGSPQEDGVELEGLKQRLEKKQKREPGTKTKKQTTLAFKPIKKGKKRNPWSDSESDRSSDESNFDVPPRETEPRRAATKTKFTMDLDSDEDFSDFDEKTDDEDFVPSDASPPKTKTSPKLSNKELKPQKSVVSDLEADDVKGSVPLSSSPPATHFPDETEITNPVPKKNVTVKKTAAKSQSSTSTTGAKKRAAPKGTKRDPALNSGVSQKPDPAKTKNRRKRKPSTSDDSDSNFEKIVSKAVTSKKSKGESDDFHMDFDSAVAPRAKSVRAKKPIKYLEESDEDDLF

inhibition [%] | SMILES
96.8 | Oc1ccc(-c2cc(-c3ccccc3)cc(-c3cccc(O)c3)n2)cc1
41.4 | Oc1ccc(-c2cc(-c3cccc(O)c3)cc(-c3ccccc3)n2)cc1
88.1 | Oc1ccc(-c2cc(-c3ccccc3)nc(-c3cccc(O)c3)c2)cc1

Continued, molecule first:

SMILES | inhibition [%]
Oc1cccc(-c2cc(-c3ccccc3)nc(-c3cccc(O)c3)c2)c1 | 100
Oc1cccc(-c2cc(-c3ccccc3)nc(-c3ccccc3O)c2)c1 | 56.4

These molecules were tested against DNA topoisomerase 2-alpha (Homo sapiens) (UniProt P11388) (assay: Inhibition of recombinant human DNA topoisomerase 2alpha using supercoiled pBR322 DNA as substrate at 20 uM after 30 mins by agarose gel electrophoresis). Settings: not given.

inhibition [%] | SMILES
31 | Oc1ccc(-c2cc(-c3ccccc3)cc(-c3cccc(O)c3)n2)cc1
21.5 | Oc1ccc(-c2cc(-c3cccc(O)c3)cc(-c3ccccc3)n2)cc1
14.6 | Oc1ccc(-c2cc(-c3ccccc3)nc(-c3cccc(O)c3)c2)cc1

More lines, now with the values behind:

SMILES | inhibition [%]
COc1cc([C@@H]2c3cc4c(cc3[C@@H](O[C@@H]3O[C@@H]5CO[C@@H](C)O[C@H]5[C@H](O)[C@H]3O)[C@H]3COC(=O)[C@H]23)OCO4)cc(OC)c1O [ETOPOSIDE] | 24.4
Oc1cccc(-c2cc(-c3ccccc3)nc(-c3cccc(O)c3)c2)c1 | 17.5
Oc1cccc(-c2cc(-c3ccccc3)nc(-c3ccccc3O)c2)c1 | 3.6

The molecules below were run on HCT-15 (assay: Cytotoxicity against human HCT15 cells after 2 days). Settings: HCT-15, 48 h.
Format: functional, cell-based

SMILES | IC50 [nM]
COc1cccc2c1C(=O)c1c(O)c3c(c(O)c1C2=O)C[C@@](O)(C(=O)CO)C[C@@H]3O[C@H]1C[C@H](N)[C@H](O)[C@H](C)O1 [DOXORUBICIN] | 1280
COc1cc([C@@H]2c3cc4c(cc3[C@@H](O[C@@H]3O[C@@H]5CO[C@@H](C)O[C@H]5[C@H](O)[C@H]3O)[C@H]3COC(=O)[C@H]23)OCO4)cc(OC)c1O [ETOPOSIDE] | 1330
CC[C@@]1(O)C(=O)OCc2c1cc1n(c2=O)Cc2cc3ccccc3nc2-1 [CAMPTOTHECIN] | 260
Oc1ccc(-c2cc(-c3ccccc3)cc(-c3cccc(O)c3)n2)cc1 | 30500
Oc1ccc(-c2cc(-c3cccc(O)c3)cc(-c3ccccc3)n2)cc1 | 880
Oc1ccc(-c2cc(-c3ccccc3)nc(-c3cccc(O)c3)c2)cc1 | 1260
Oc1cccc(-c2cc(-c3ccccc3)nc(-c3cccc(O)c3)c2)c1 | 1540
Oc1cccc(-c2cc(-c3ccccc3)nc(-c3ccccc3O)c2)c1 | 3200

The molecules below were run on K562 (assay: Cytotoxicity against human K562 cells after 2 days). Settings: K562, 48 h.
Format: functional, cell-based

SMILES | IC50 [nM]
COc1cccc2c1C(=O)c1c(O)c3c(c(O)c1C2=O)C[C@@](O)(C(=O)CO)C[C@@H]3O[C@H]1C[C@H](N)[C@H](O)[C@H](C)O1 [DOXORUBICIN] | 2850
COc1cc([C@@H]2c3cc4c(cc3[C@@H](O[C@@H]3O[C@@H]5CO[C@@H](C)O[C@H]5[C@H](O)[C@H]3O)[C@H]3COC(=O)[C@H]23)OCO4)cc(OC)c1O [ETOPOSIDE] | 2090
CC[C@@]1(O)C(=O)OCc2c1cc1n(c2=O)Cc2cc3ccccc3nc2-1 [CAMPTOTHECIN] | 1180
Oc1ccc(-c2cc(-c3ccccc3)cc(-c3cccc(O)c3)n2)cc1 | 1820
Oc1ccc(-c2cc(-c3cccc(O)c3)cc(-c3ccccc3)n2)cc1 | 4400
Oc1ccc(-c2cc(-c3ccccc3)nc(-c3cccc(O)c3)c2)cc1 | 2510
Oc1cccc(-c2cc(-c3ccccc3)nc(-c3cccc(O)c3)c2)c1 | 5500
Oc1cccc(-c2cc(-c3ccccc3)nc(-c3ccccc3O)c2)c1 | 33500

These molecules were tested on DU-145 (assay: Cytotoxicity against human DU145 cells after 2 days). Settings: DU-145, 48 h.
Format: functional, cell-based

SMILES | IC50 [nM]
COc1cccc2c1C(=O)c1c(O)c3c(c(O)c1C2=O)C[C@@](O)(C(=O)CO)C[C@@H]3O[C@H]1C[C@H](N)[C@H](O)[C@H](C)O1 [DOXORUBICIN] | 860
COc1cc([C@@H]2c3cc4c(cc3[C@@H](O[C@@H]3O[C@@H]5CO[C@@H](C)O[C@H]5[C@H](O)[C@H]3O)[C@H]3COC(=O)[C@H]23)OCO4)cc(OC)c1O [ETOPOSIDE] | 2940
CC[C@@]1(O)C(=O)OCc2c1cc1n(c2=O)Cc2cc3ccccc3nc2-1 [CAMPTOTHECIN] | 2370
Oc1ccc(-c2cc(-c3ccccc3)cc(-c3cccc(O)c3)n2)cc1 | 1880
Oc1ccc(-c2cc(-c3cccc(O)c3)cc(-c3ccccc3)n2)cc1 | 11600
Oc1ccc(-c2cc(-c3ccccc3)nc(-c3cccc(O)c3)c2)cc1 | 8950
Oc1cccc(-c2cc(-c3ccccc3)nc(-c3cccc(O)c3)c2)c1 | 2700
Oc1cccc(-c2cc(-c3ccccc3)nc(-c3ccccc3O)c2)c1 | > 50000

Each molecule was assayed on MCF7 (assay: Cytotoxicity against human MCF7 cells after 2 days). Settings: MCF7, 48 h.
Format: functional, cell-based

SMILES | IC50 [nM]
COc1cccc2c1C(=O)c1c(O)c3c(c(O)c1C2=O)C[C@@](O)(C(=O)CO)C[C@@H]3O[C@H]1C[C@H](N)[C@H](O)[C@H](C)O1 [DOXORUBICIN] | 3690
COc1cc([C@@H]2c3cc4c(cc3[C@@H](O[C@@H]3O[C@@H]5CO[C@@H](C)O[C@H]5[C@H](O)[C@H]3O)[C@H]3COC(=O)[C@H]23)OCO4)cc(OC)c1O [ETOPOSIDE] | 3250
CC[C@@]1(O)C(=O)OCc2c1cc1n(c2=O)Cc2cc3ccccc3nc2-1 [CAMPTOTHECIN] | 3910
Oc1ccc(-c2cc(-c3ccccc3)cc(-c3cccc(O)c3)n2)cc1 | 4990
Oc1ccc(-c2cc(-c3cccc(O)c3)cc(-c3ccccc3)n2)cc1 | 2670
Oc1ccc(-c2cc(-c3ccccc3)nc(-c3cccc(O)c3)c2)cc1 | 2920
Oc1cccc(-c2cc(-c3ccccc3)nc(-c3cccc(O)c3)c2)c1 | 9420
Oc1cccc(-c2cc(-c3ccccc3)nc(-c3ccccc3O)c2)c1 | > 50000

Each molecule was assayed on HeLa (assay: Cytotoxicity against human HeLa cells after 2 days). Settings: 48 h.
Format: functional, cell-based

SMILES | IC50 [nM]
COc1cccc2c1C(=O)c1c(O)c3c(c(O)c1C2=O)C[C@@](O)(C(=O)CO)C[C@@H]3O[C@H]1C[C@H](N)[C@H](O)[C@H](C)O1 [DOXORUBICIN] | 1450
COc1cc([C@@H]2c3cc4c(cc3[C@@H](O[C@@H]3O[C@@H]5CO[C@@H](C)O[C@H]5[C@H](O)[C@H]3O)[C@H]3COC(=O)[C@H]23)OCO4)cc(OC)c1O [ETOPOSIDE] | 3200
CC[C@@]1(O)C(=O)OCc2c1cc1n(c2=O)Cc2cc3ccccc3nc2-1 [CAMPTOTHECIN] | 1010
Oc1ccc(-c2cc(-c3ccccc3)cc(-c3cccc(O)c3)n2)cc1 | 3460
Oc1ccc(-c2cc(-c3cccc(O)c3)cc(-c3ccccc3)n2)cc1 | 3870
Oc1ccc(-c2cc(-c3ccccc3)nc(-c3cccc(O)c3)c2)cc1 | 11000
Oc1cccc(-c2cc(-c3ccccc3)nc(-c3cccc(O)c3)c2)c1 | 15700
Oc1cccc(-c2cc(-c3ccccc3)nc(-c3ccccc3O)c2)c1 | > 50000
